Tests used:
[1] = Dropping point of a model sebum containing 1,2-decanediol (AOCS Cc 18-80/ASTM D 3954); type: physicochemical; conditions: addition of 20 wt. % 1,2-decanediol to model sebum, versus 1,2-decanediol-free model sebum
From the text: To check the extent to which 1,2-decanediol has a sebum-fluidizing property and is therefore capable of reducing the sebum concentration on the skin surface, and in particular in the sebaceous gland follicles, by a physical route, the influence of 1,2-decanediol on the dropping point of a model sebum was first investigated. On the basis of these publications, a model […] was developed which substantially comprises saturated and unsaturated free fatty acids, wax-like substances, triglycerides and cholesterol and, in detail, is composed of the following substances: palmitic acid, oleic acid, stearic acid, squalene, myristyl myristate, cetyl palmitate, tripalmitin, triolein and cholesterol. The exact quantitative composition of the model sebum (contents of the individual substances in per cent by weight; wt. %) can be seen from the following Table 1. [table] To investigate the influence of 1,2-decanediol on the physical properties of the model sebum, 20 wt. % 1,2-decanediol was added to the model sebum. The dropping points of the 1,2-decanediol-free model sebum and the model sebum sample containing 20 wt. % 1,2-decanediol were then determined using the method for dropping point determination according to AOCS Cc 18-80/ASTM D 3954.

P. acnes = conditions: reported in EP 1 598 064 A1; cited from earlier work

With `CCCCCCCCC(O)CO` (centres unmarked) [1,2-decanediol] as the molecule, how does the “reduction of the dropping point of model sebum” value [1] read?
The value was 12.7 °C.

And the “antibacterial action in the suspension test” value (P. acnes)?
The value was “as good as no antibacterial action”.
